Test results reported in patent publication US8778617B2, “Method for determining the binding constant of high affinity compounds” (Hoffmann-La Roche Inc., priority 2010, dated 2014).
One block for each compound: values may come before it.

What was measured:
[1] = Equilibrium dialysis, excipient binding to gamma-cyclodextrin; conditions: γ-Cyclodextrin 2.5% (m/V); membrane cut off 1 kDa; Warfarin 0.01 mM to 0.4 mM; UV
Procedure: (§1) A reusable 96-well Micro-Equilibrium dialysis Device 96 chamber was used for the following experiments. The chamber system consists of 10 Teflon™ bars, wherein semipermeable membranes (see 1.2 Membranes) were placed between two Teflon™ bars each to form two compartment of each well.
(§2) 2) The protein chamber (chamber 2) is filled with buffer and the other excipients to the final volume of approximately 100-150 ul. It is important that on each side the volume is exactly the same.
(§3) 5) The chamber system was shaken for 1 hour, then incubated over night (approximately 12 hours). Long duration shaking should be avoided due to the risk of higher evaporation caused by the generated heat.
(§4) 6) After reaching the equilibrium, a sample from the sink chamber (reference, binding study II with sink compound and HSA), or from the protein chamber (reference, binding study I with sink compound alone) was transferred to a half-area UV-plate and analyzed spectrometrically (spectra max, 190 Plate Reader; 250-500 nm) or it was analysed by HPLC.

[2] = Equilibrium dialysis, binding to beta-hydroxypropyl-cyclodextrine as sink compound; conditions: membrane cut off 1 kDa; for fb(%) excipient binding level: Warfarin 0.01 mM to 0.4 mM, UV; for Average Binding [%] to beta-hydroxypropyl-cyclodextrine: beta-hydroxypropyl-cyclodextrine 10% (m/V), test compound 0.02 mM-0.06 mM, DMSO 6% (V/V)
Procedure: A reusable 96-well Micro-Equilibrium dialysis Device 96 chamber was used for the following experiments. The chamber system consists of 10 Teflon™ bars, wherein semipermeable membranes (see 1.2 Membranes) were placed between two Teflon™ bars each to form two compartment of each well. 2) The protein chamber (chamber 2) is filled with buffer and the other excipients to the final volume of approximately 100-150 ul. […] 5) The chamber system was shaken for 1 hour, then incubated over night (approximately 12 hours). Long duration shaking should be avoided due to the risk of higher evaporation caused by the generated heat.

[3] = Equilibrium dialysis, binding to combination of PVP25 and beta-hydroxypropyl-cyclodextrin as sink compound; conditions: PVP 25 4% (m/V) + β-Hydroxypropyl-cyclodextrin 4% (m/V); membrane cut off 1 kDa; test compound 0.02 mM to 0.6 mM
Procedure: as §1, §2
(§5) with PVP and PVP in combination with cyclodextrines as sink compound in chamber the volume was 100 μl. (PVP 15 4% (m/V), PVP 25 4% (m/V), PVP 25 4% (m/V)+β-Hydroxypropyl-cyclodextrin 4% (m/V))
as §3, §4

[4] = biological target: human serum albumin (HSA) (Homo sapiens, UniProt P02768); assay: Assay with PVP 25 (sink compound) and human serum albumin, new approach; format: in vitro ADME; conditions: pH 7.4, PVP 25 4.0% (m/V) as sink compound, HSA 60 mM, membrane MWCO 3.5 kDa, test compound 0.02 mM to 0.6 mM, HPLC; for fraction bound to HSA: read-out: fu (%) newApproach (binding level to HSA)
Sequence of human serum albumin (HSA) (P02768 25-609): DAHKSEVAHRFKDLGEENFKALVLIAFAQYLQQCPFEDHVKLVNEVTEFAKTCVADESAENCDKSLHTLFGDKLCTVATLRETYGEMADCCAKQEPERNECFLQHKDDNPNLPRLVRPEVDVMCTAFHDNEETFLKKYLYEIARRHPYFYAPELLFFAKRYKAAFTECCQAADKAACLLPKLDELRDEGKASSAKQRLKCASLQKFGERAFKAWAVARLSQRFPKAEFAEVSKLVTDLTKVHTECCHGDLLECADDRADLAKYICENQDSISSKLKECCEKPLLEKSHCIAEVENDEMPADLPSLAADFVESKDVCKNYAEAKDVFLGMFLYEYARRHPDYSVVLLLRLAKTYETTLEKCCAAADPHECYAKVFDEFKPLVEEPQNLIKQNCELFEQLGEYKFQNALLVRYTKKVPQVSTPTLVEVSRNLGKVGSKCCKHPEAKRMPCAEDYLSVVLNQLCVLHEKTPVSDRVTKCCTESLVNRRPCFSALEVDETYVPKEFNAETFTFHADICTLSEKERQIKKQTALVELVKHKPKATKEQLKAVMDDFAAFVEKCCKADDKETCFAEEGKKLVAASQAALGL
Procedure: as §2
End concentration of HSA: 60 mM
as §3, §4
The distribution coefficient and the binding constant can be calculated with binding studies. The binding of drugs to HSA is a reversible process which can be described by the following equilibrium [Du]+[HSA]·[D·HSA]
The binding constant KHSA can be converted to the fraction unbound fu with the following formula derived from the law of mass:
The binding constant to HSA (KHSA) (2) can be calculated from the combination of partition coefficients to PVP (DCPVP) (3) and to HSA in the presence of PVP (DCHSA′) (3). KHSA=DCPVP·DCHSA′ (2)
Vtotal is total volume in the dialysis chamber (200 μl) and VHSA and VPVP are the volumes of HSA and PVP 25, which can be calculated from the density and the weighted sample
Analytics was carried out on an HPLC-system (Agilent 1100). The separations were performed on a RP column (Chromolith flash, RP18e, 4.6×25 mm). Samples were eluted with gradient of water with 0.05% formic acid (A) and Acetonitril (B).

plasma protein [5] = conditions: conventional methods, literature values; cited from earlier work
[6] = Equilibrium dialysis, binding to PVP 15; conditions: PVP 15 40 g/l; drugs 0.02-0.6 mM
Procedure: as §1, §2, §5, §3, §4
(§6) Concentrations of the drugs: 0.02-0.6 mM
(§7) Amounts of PVP 15 and PVP25: each 40 g/l

[7] = Equilibrium dialysis, binding to PVP 25; conditions: PVP25 40 g/l; drugs 0.02-0.6 mM
Procedure: as §1, §2, §5, §3, §4, §6, §7

plasma protein [8] = assay: Protein binding determined with conventional methods (literature values / inhouse); format: in vitro ADME; conditions: read-out: fu (%) Literature (binding level)
From the text: The determined binding levels of the test compound in example 6 (“new approach”) were compared with the values determined with conventional methods (literature values).

Compound: CC(=O)CC(c1ccccc1)c1c(O)c2ccccc2oc1=O (racemic) [Warfarin, (RS)-4-hydroxy-3-(3-oxo-1-phenylbutyl)-2H-chromen-2-one]
- fb(%) excipient binding level [1]: 6.0%
- fb(%) excipient binding level ([2]; β-Hydroxypropyl-cyclodextrin 1% (m/V)): 6.8%
- fb(%) excipient binding level ([2]; β-Hydroxypropyl-cyclodextrin 10% (m/V)): 27.6%
- fb(%) excipient binding level [3]: 27.9%

Compound: CO/N=C(\C(=O)N[C@@H]1C(=O)N2C(C(=O)O)=C(CSc3nc(=O)c(=O)[nH]n3C)CS[C@H]12)c1csc(N)n1 [Ceftriaxone]
- Average Binding [%] to beta-hydroxypropyl-cyclodextrine [2]: 14.2%

Compound: NS(=O)(=O)c1cc(C(=O)O)c(NCc2ccco2)cc1Cl [Furosemid, 4-chloro-2-(furan-2-ylmethylamino)-5-sulfamoylbenzoic acid]
- Average binding [%] to PVP15 [6]: 37.0%
- Average binding [%] to PVP25 [7]: 49.4%

Compound: COc1ccc(Cl)cc1C(=O)NCCc1ccc(S(=O)(=O)NC(=O)NC2CCCCC2)cc1 [Glibenclamid, 5-chloro-N-(4-[N-(cyclohexylcarbamoyl)sulfamoyl]phenethyl)-2-methoxybenzamide]
- fraction bound to HSA [4]: 1
- fraction bound (plasma protein [8]): 0.997

Compound: C=C[C@H]1C[N@@]2CC[C@H]1C[C@H]2[C@H](O)c1ccnc2ccc(OC)cc12 [Quinine]
- Average Binding [%] to beta-hydroxypropyl-cyclodextrine [2]: 21.6%

Continued, in another order:

- Average Binding [%] to beta-hydroxypropyl-cyclodextrine [2]: 31.3%
Compound: NC(=O)N1c2ccccc2C=Cc2ccccc21 [Carbamazepin]

- fraction bound to HSA [4]: 0.994
Compound: CN(C)CCCN1c2ccccc2Sc2ccc(Cl)cc21 [Chlorpromazine, 3-(2-chloro-10H-phenothiazin-10-yl)-N,N-dimethyl-propan-1-amine]
- fu (%) Literature (binding level) (plasma protein [5]): 97.80%

- Average Binding [%] to beta-hydroxypropyl-cyclodextrine [2]: 23.1%
- Average binding [%] to PVP15 [6]: 21.7%
- Average binding [%] to PVP25 [7]: 46.4%
Compound: O=C(O)Cc1ccccc1Nc1c(Cl)cccc1Cl [Diclofenac, 2-(2-(2,6-dichlorophenylamino)phenyl)acetic acid]

- fraction bound [4]: 99.6%
Compound: CN1/C(=C(/O)Nc2ccccn2)C(=O)c2ccccc2S1(=O)=O [Piroxicame, (8E)-8-[hydroxy-(pyridin-2-ylamino)methylidene]-9-methyl-10,10-dioxo-10λ6-thia-9-azabicyclo[4.4.0]deca-1,3,5-trien-7-one]
- fu (%) Literature (binding level) (plasma protein [5]): 99.0%
